Results published in patent US11040047B2, “Prodrugs of nucleoside phosphonates” (Katholieke Universiteit Leuven, priority 2017, dated 2021).
Read-outs that look alike come from different tables or passages of the source.

What was measured:
[1] = tested on: human cytomegalovirus (HCMV) strain AD-169; assay: Inhibition of virus-induced cytopathicity, HCMV AD-169, in HEL fibroblasts; assay type: cell-based; conditions: read-out: Antiviral activity EC50 HCMV AD-169 strain
[2] = tested on: varicella-zoster virus (VZV) strain Oka; assay: Inhibition of plaque formation, VZV TK+ Oka, in HEL fibroblasts; assay type: cell-based; conditions: Human alphaherpesvirus 3, HEL, read-out: Antiviral activity EC50 VZV TK+ strain (OKA)
[3] = tested on: human cytomegalovirus (HCMV) strain Davis; assay: Inhibition of virus-induced cytopathicity, HCMV Davis, in HEL fibroblasts; assay type: cell-based; conditions: read-out: Antiviral activity EC50 HCMV Davis strain
[4] = tested on: HEL cells; assay: Cytotoxicity, minimum cytotoxic concentration (cell morphology) in HEL cells; conditions: minimum concentration causing microscopically detectable alteration of cell morphology
[5] = tested on: TK− VZV strain 07-1; assay: microbe, parasite or virus in culture; assay type: cell-based, varicella-zoster virus; conditions: Human alphaherpesvirus 3, HEL, read-out: Antiviral activity EC50 VZV TK− strain
[6] = in vitro; conditions: human
[7] = tested on: HEL cells; assay: Cytostatic activity, inhibition of HEL cell growth (CC50); conditions: read-out: Cytotoxicity HEL cells CC50, concentration reducing cell viability/proliferation by 50%, 3 days
[8] = tested on: human adeno virus-2 (clinical isolate C251085); assay: Inhibition of virus-induced cytopathicity, human adeno virus-2, in HEL 299 cells; assay type: cell-based; conditions: Human mastadenovirus C, 240 h, 10 days, cytopathicity reduced by 50%, read-out: Antiviral activity EC50 Adenovirus 2
[9] = tested on: Vaccinia virus (strain Lederle, ATCC VR-118); assay: microbe, parasite or virus in culture; assay type: cell-based; conditions: Orthopoxvirus vaccinia, HEL 299, 96 h, read-out: Antiviral activity EC50 Vaccinia virus
[10] = tested on: HEL 299 cells; conditions: human
[11] = Human betaherpesvirus 5, AD169, HEL
[12] = Human betaherpesvirus 5, AD169, HEL cells, reduction of virus-induced cytopathicity by 50%

SMILES | EC50 [1, 11] [nM] | EC50 [2] [nM] | EC50 ([3]; Human betaherpesvirus 5, HEL) [nM] | Cytotoxicity HEL cells MCC ([4]; Table 1) | Cytotoxicity HEL cells MCC ([4]; Table 2) | EC50 [5] [nM] | CC50 at 3 days [6] [nM] | CC50 at 3 days ([6]; HEL cells) [nM] | EC50 [1, 12] [nM] | CC50 ([7]; Table 1) [nM] | EC50 [8] [nM] | EC50 [9] [nM] | Cytotoxicity MCC [10] | CC50 ([7]; Table 2) [nM] | EC50 ([3]; Human betaherpesvirus 5, HEL cells, reduction of virus-induced cytopathicity by 50%) [nM]
CCCCCOC(=O)[C@H](C)NP1(=O)CO[C@@H](Cn2cnc3c(N)ncnc32)CO1 (stereo partly drawn) [Example 14, Amyl ((5S)-5-((6-amino-9H-purin-9-yl)methyl)-2-oxido-1,4,2-dioxaphosphinan-2-yl)-L-alaninate] | 64 | 2 | 65 | 23.5 | 23.5 | 4.3 | 3400 | – | – | – | – | – | – | – | –
CCCCCOC(=O)[C@@H](NP1(=O)CO[C@@H](Cn2cnc3c(N)ncnc32)CO1)[C@@H](C)CC (stereo partly drawn) [Example 18, Amyl {(5S)-5-[(6-amino-9H-purin-9-yl)methyl]-2-oxido-1,4,2-dioxaphosphinan-2-yl}-L-isoleucinate] | 7 | 0.45 | 6.5 | 9.96 | 9.96 | 0.54 | 12000 | – | – | – | – | – | – | – | –
CCCCCOC(=O)[C@H](CCSC)NP1(=O)CO[C@@H](Cn2cnc3c(N)ncnc32)CO1 (stereo partly drawn) [Example 13, Amyl ((5S)-5-((6-amino-9H-purin-9-yl)methyl)-2-oxido-1,4,2-dioxaphosphinan-2-yl)-L-methioninate] | 32 | 2.6 | 29 | 4.11 | 4.11 | 4 | 39600 | – | – | – | – | – | – | – | –
CCCCCOC(=O)[C@H](Cc1ccccc1)NP1(=O)CO[C@@H](Cn2cnc3c(N)ncnc32)CO1 (stereo partly drawn) [Example 12, Amyl ((5S)-5-((6-amino-9H-purin-9-yl)methyl)-2-oxido-1,4,2-dioxaphosphinan-2-yl)-L-phenylalaninate] | 31 | 0.52 | 17 | 9.3 | 9.3 | 3.2 | 30600 | – | – | – | – | – | – | – | –
CCCCCOC(=O)C[C@H](NP1(=O)CO[C@@H](Cn2ccc(N)nc2=O)CO1)C(=O)OCCCCC (stereo partly drawn) [Example 10, Diamyl {(5S)-5-[(4-amino-2-oxopyrimidin-1(2H)-yl)methyl]-2-oxido-1,4,2-dioxaphosphinan-2-yl}-L-aspartate] | 12 | 5.5 | 19 | 19.4 | 19.4 | 6.3 | – | 33100 | – | – | – | – | – | – | –
CCCCCOC(=O)[C@@H](NP1(=O)CO[C@@H](Cn2cnc3c(N)ncnc32)CO1)C(C)C (stereo partly drawn) [Example 16, Amyl {(5S)-5-[(6-amino-9H-purin-9-yl)methyl]-2-oxido-1,4,2-dioxaphosphinan-2-yl}-L-valinate] | 5.9 | 0.57 | 4.8 | 4.40 | 4.40 | 1.5 | 7760 | – | – | – | – | – | – | – | –
CCCCCOC(=O)CC[C@H](NP1(=O)CO[C@@H](Cn2cnc3c(N)ncnc32)CO1)C(=O)OCCCCC (stereo partly drawn) [Example 15, Diamyl {(5S)-5-[(6-amino-9H-purin-9-yl)methyl]-2-oxido-1,4,2-dioxaphosphinan-2-yl}-L-glutamate] | 14 | 0.58 | 7.6 | 13.2 | 13.2 | 0.95 | 520 | – | – | – | – | – | – | – | –
Nc1nc(O)c2ncn(COC(CO)CO)c2n1 [Ganciclovir, reference compound] | – | – | – | >39.2 | >39.2 | – | – | – | 7400 | – | – | – | – | – | –
Nc1nc2c(ncn2CCC(CO)CO)c(=O)[nH]1 [Penciclovir, reference compound] | – | – | – | >79.0 | – | – | – | – | – | > 395000 | – | – | – | – | –
CCCCCOC(=O)[C@@H](NP(=O)(CO[C@H](CO)Cn1cnc2c(N)ncnc21)N[C@H](C(=O)OCCCCC)C(C)C)C(C)C [Example 19, diamyl 2,2′-((((((S)-1-(6-amino-9H-purin-9-yl)-3-hydroxypropan-2-yl)oxy)methyl)phosphoryl)bis(azanediyl))(2S,2′S)-bis(3-methylbutanoate)] | 100 | 1.5 | 72 | 8.57 | 8.57 | 0.95 | 600 | – | – | – | 13.5 | 42.5 | ≥20 | – | –
CCCCCOC(=O)[C@H](CC(C)C)NP1(=O)CO[C@@H](Cn2cnc3c(N)ncnc32)CO1 (stereo partly drawn) [Example 17, Amyl {(5S)-5-[(6-amino-9H-purin-9-yl)methyl]-2-oxido-1,4,2-dioxaphosphinan-2-yl}-L-leucinate] | 5.7 | 0.47 | 3.8 | 4.27 | 4.27 | 0.59 | 1620 | – | – | – | 43.5 | 77.5 | ≥0.8 | – | –
CCCCCOC(=O)C[C@H](NP1(=O)CO[C@@H](Cn2cnc3c(N)ncnc32)CO1)C(=O)OCCCCC (stereo partly drawn) [Example 8, Diamyl {(5S)-5-[(6-amino-9H-purin-9-yl)methyl]-2-oxido-1,4,2-dioxaphosphinan-2-yl}-L-aspartate] | 27 | 1.4 | 9 | 13.6 | 13.6 | 1.5 | 2730 | – | – | – | 183 | 77 | ≥20 | – | –
O=c1[nH]c(=O)n([C@H]2C[C@H](O)[C@@H](CO)O2)cc1/C=C/Br [Brivudin, reference compound] | – | 53 | – | >30.0 | >30.0 | 22100 | > 300000 | – | – | > 300000 | – | 5800 | >250 | – | –
Nc1nc2c(ncn2COCCO)c(=O)[nH]1 [Acyclovir, reference compound] | – | – | – | >88.8 | >88.8 | – | – | – | – | – | – | – | – | – | –
CCCCCOC(=O)C[C@H](NP1(=O)CO[C@H](Cn2ccc(N)nc2=O)CO1)C(=O)OCCCCC (stereo partly drawn) [Example 11, Diamyl {(5R)-5-[(4-amino-2-oxopyrimidin-1(2H)-yl)methyl]-2-oxido-1,4,2-dioxaphosphinan-2-yl}-L-aspartate] | 2680 | 810 | 3530 | >19 | >19 | 1240 | – | > 194000 | – | – | – | – | – | > 194000 | –
CCCCCOC(=O)C[C@H](NP1(=O)CO[C@H](Cn2cnc3c(N)ncnc32)CO1)C(=O)OCCCCC (stereo partly drawn) [Example 9, Diamyl {(5R)-5-[(6-amino-9H-purin-9-yl)methyl]-2-oxido-1,4,2-dioxaphosphinan-2-yl}-L-aspartate] | 4390 | 33 | 1620 | >18.5 | >18.5 | 62 | 11600 | – | – | – | – | – | – | – | –
Nc1ccn(C[C@@H](CO)OCP(=O)(O)O)c(=O)n1 [Cidofovir, reference compound] | – | – | – | >71.6 | >71.6 | – | – | > 358000 | 1600 | > 358000 | 10000 | 50000 | >250 | – | 840
